# Test results taken from patent US20260294915A1, “COMBINATION THERAPY COMPRISING A MAT2A INHIBITOR AND A TOPOISOMERASE INHIBITOR, A SPLICING INHIBITOR SULFONAMIDE, OR A KIF18 INHIBITOR” (IDEAYA BIOSCIENCES, INC., priority 2023, published 2026).
# Marks after values point to notes of the source that are not given here.
# What was measured:
# Assay in all cases: 10-day proliferation (CTG), SPLAM titration + 1000 nM Compound A, Bliss (Example 5; Tables 12-19)
# Format in all cases: cell-based
# Design in all cases: key: GDI scale -100 to 100; 0 = cell number at T0; <0 cytotoxic
# Settings in all cases: alone or + 1 uM Cmpd A
# RT112/84 = tested on: RT112/84
# Description: (§1) Synergy was measured across the Indisulam titration with 1000 nM Compound A by Bliss Independence analysis. Bliss scores >10 are indicated by “*” and are considered synergistic. […] Synergy as reported using Bliss may be underrepresented within cytotoxic dose ranges. Growth death index values are shown for the combination titration and each single agent Compound A (Cmpd A) and Indisulam on a scale of −100 to 100 with the midpoint (0) being the number of cells at the beginning of the combination (T0). Scores less than 0 are indicated with “**” and are representative of a cytotoxic response. Bliss and GDI values are shown for five MTAP-deficient cell lines: NCI-1H838 (12A), SW900 (12B), RT112/84 (12C), UMUC5 (121D), and UMUC11 (12E).
# (§2) A 10-day proliferation assay was performed in a panel of 5 MTAP-deficient and 2 wild type non-small cell lung and bladder cancer cell lines. Optimal cell seeding for all cell lines was determined by assessing the growth over a range of seeding densities in a 384-well format to identify conditions that permitted proliferation for 10 days. Cells were then plated at the optimal seeding density and treated with 20-point, two-fold dilution series of each of four structurally different SPLAMs in combination with a 1000 nM fixed concentration of Compound A. Single agent titrations for Compound A and each SPLAM were included for comparison. Concentrations tested for each SPLAM alone or in combination ranged from 0.04 nM to 20,000 nM. A plate of cells was harvested at the time of compound addition to quantify the number of cells at the start of the combination (T0). For cell quantification, the harvested cells were lysed with Promega CellTiter-Glo (CTG) reagent according to the manufacturer's protocol and the chemiluminescent signal was detected as described in Example 1 above. Cells were incubated with the drug combinations at 37° C. with 5% CO2 for 10 days. Cells were then lysed with CTG and the chemiluminescent signal was measured.
# (§3) CTG values obtained after the 10-day treatment were background subtracted and expressed as a percent of the T0 value set at 100%. Data were plotted against compound concentration and fit with a four-parameter equation to generate single agent dose response curves. Percent inhibition was determined for each combination and single agent concentration compared to a DMSO control. In addition, the overall net growth or death of the cells was calculated and reported as a growth death index (GDI) value on a scale of −100 to 100 with the midpoint (0) being the number of cells at the beginning of the combination (T0).
# (§4) Predicted inhibition was calculated using (Ea+Eb)−(Ea*Eb) where E equals the effect (inhibition) of each single agent (a and b). A difference between the observed inhibition percentage and the predicted inhibition percentage greater than 10% was considered synergistic. A Bliss score was only reported for combinations eliciting >20% growth inhibition (GDI value <80). Since Bliss is calculated based on growth inhibition, scores within cytotoxic dose ranges may not accurately reflect synergistic cytoxicity.
# (§5) Synergy was measured across the E7820 titration with 1000 nM Compound A by Bliss Independence analysis. Bliss scores >10 are indicated by “*” and are considered synergistic. […] Synergy as reported using Bliss may be underrepresented within cytotoxic dose ranges. Growth death index values are shown for the combination titration and each single agent Compound A (Cmpd A) and Indisulam on a scale of −100 to 100 with the midpoint (0) being the number of cells at the beginning of the combination (T0). Scores less than 0 are indicated by “**” and are representative of a cytotoxic response. Bliss and GDI values are shown for five MTAP-deficient cell lines: NCI-1H838 (14A), SW900 (14B), RT112/84 (14C), UMUC5 (141)), and UMUC11 (14E).
# (§6) Synergy was measured across the Chloroquinoxaline Sulfonamide titration with 1000 nM Compound A by Bliss Independence analysis.
# UMUC11 = tested on: UMUC11
# Description: as §1, §2, §3, §4, §5, §6
# NCI-H838 = tested on: NCI-H838
# Description: as §1, §2, §3, §4, §5, §6
# SW900 = tested on: SW900
# Description: as §1, §2, §3, §4, §5, §6
compound,measurement,setting,value
"Cc1ccc(NS(=O)(=O)c2cccc(C#N)c2)c2[nH]cc(C#N)c12 [Compound E7820, 3-cyano-N-(3-cyano-4-methyl-1H-indol-7-yl)benzenesulfonamide]",GDI,RT112/84; SPLAM 0.04 nM,89
same,GDI,RT112/84; SPLAM 0.1 nM,94
same,GDI,RT112/84; SPLAM 0.2 nM,100
same,GDI,RT112/84; SPLAM 0.3 nM,100
same,GDI,RT112/84; SPLAM 0.6 nM,100
same,GDI,RT112/84; SPLAM 1.2 nM,100
same,GDI,RT112/84; SPLAM 2.4 nM,100
same,GDI,RT112/84; SPLAM 4.9 nM,94
same,GDI,RT112/84; SPLAM 9.8 nM,100
same,GDI,RT112/84; SPLAM 19.5 nM,100
same,GDI,RT112/84; SPLAM 39.1 nM,100
same,GDI,RT112/84; SPLAM 78.1 nM,100
same,GDI,RT112/84; SPLAM 156.3 nM,90
same,GDI,RT112/84; SPLAM 312.5 nM,31
same,GDI,RT112/84; SPLAM 625 nM,6
same,GDI,RT112/84; SPLAM 1250 nM,−35**
same,GDI,RT112/84; SPLAM 2500 nM,−84**
same,GDI,RT112/84; SPLAM 5000 nM,−100**
same,GDI,RT112/84; SPLAM 10000 nM,−100**
same,GDI,RT112/84; SPLAM 20000 nM,−100**
same,GDI,UMUC11; SPLAM 0.04 nM,100
same,GDI,UMUC11; SPLAM 0.1 nM,100
same,GDI,UMUC11; SPLAM 0.2 nM,100
same,GDI,UMUC11; SPLAM 0.3 nM,100
same,GDI,UMUC11; SPLAM 0.6 nM,100
same,GDI,UMUC11; SPLAM 1.2 nM,100
same,GDI,UMUC11; SPLAM 2.4 nM,100
same,GDI,UMUC11; SPLAM 4.9 nM,100
same,GDI,UMUC11; SPLAM 9.8 nM,100
same,GDI,UMUC11; SPLAM 19.5 nM,100
same,GDI,UMUC11; SPLAM 39.1 nM,100
same,GDI,UMUC11; SPLAM 78.1 nM,100
same,GDI,UMUC11; SPLAM 156.3 nM,100
same,GDI,UMUC11; SPLAM 312.5 nM,76
same,GDI,UMUC11; SPLAM 625 nM,31
same,GDI,UMUC11; SPLAM 1250 nM,11
same,GDI,UMUC11; SPLAM 2500 nM,5
same,GDI,UMUC11; SPLAM 5000 nM,4
same,GDI,UMUC11; SPLAM 10000 nM,3
same,GDI,UMUC11; SPLAM 20000 nM,1
same,GDI,NCI-H838; SPLAM 0.04 nM,100
same,GDI,NCI-H838; SPLAM 0.1 nM,100
same,GDI,NCI-H838; SPLAM 0.2 nM,100
same,GDI,NCI-H838; SPLAM 0.3 nM,100
same,GDI,NCI-H838; SPLAM 0.6 nM,100
same,GDI,NCI-H838; SPLAM 1.2 nM,100
same,GDI,NCI-H838; SPLAM 2.4 nM,100
same,GDI,NCI-H838; SPLAM 4.9 nM,100
same,GDI,NCI-H838; SPLAM 9.8 nM,100
same,GDI,NCI-H838; SPLAM 19.5 nM,100
same,GDI,NCI-H838; SPLAM 39.1 nM,100
same,GDI,NCI-H838; SPLAM 78.1 nM,100
same,GDI,NCI-H838; SPLAM 156.3 nM,100
same,GDI,NCI-H838; SPLAM 312.5 nM,76
same,GDI,NCI-H838; SPLAM 625 nM,13
same,GDI,NCI-H838; SPLAM 1250 nM,4
same,GDI,NCI-H838; SPLAM 2500 nM,1
same,GDI,NCI-H838; SPLAM 5000 nM,−13**
same,GDI,NCI-H838; SPLAM 10000 nM,−64**
same,GDI,NCI-H838; SPLAM 20000 nM,−46**
same,GDI,SW900; SPLAM 0.04 nM,97
same,GDI,SW900; SPLAM 0.1 nM,100
same,GDI,SW900; SPLAM 0.2 nM,99
same,GDI,SW900; SPLAM 0.3 nM,100
same,GDI,SW900; SPLAM 0.6 nM,100
same,GDI,SW900; SPLAM 1.2 nM,100
same,GDI,SW900; SPLAM 2.4 nM,100
same,GDI,SW900; SPLAM 4.9 nM,100
same,GDI,SW900; SPLAM 9.8 nM,100
same,GDI,SW900; SPLAM 19.5 nM,100
same,GDI,SW900; SPLAM 39.1 nM,100
same,GDI,SW900; SPLAM 78.1 nM,100
same,GDI,SW900; SPLAM 156.3 nM,100
same,GDI,SW900; SPLAM 312.5 nM,28
same,GDI,SW900; SPLAM 625 nM,−7**
same,GDI,SW900; SPLAM 1250 nM,−37**
same,GDI,SW900; SPLAM 2500 nM,−56**
same,GDI,SW900; SPLAM 5000 nM,−47**
same,GDI,SW900; SPLAM 10000 nM,−70**
same,GDI,SW900; SPLAM 20000 nM,−59**
